Experimental findings from patent US8110703B2, “Retinoid derivative and pharmaceutical composition and use thereof” (Anhui Medical University, priority 2008, dated 2012) are described below.

Molecules are shown by their SMILES.

Common to all, as to type: cell-based
One test relates to A549 lung cancer cells. Put plainly: MTT cell growth and proliferation experiment, A549. Conditions: 3 d; for OD Value (x ± s): A549, MTT OD 570 nm; for Inhibition Rate: A549, MTT, given as fraction. Details: key to Inhibition Rate: (control OD570 − test OD570)/control OD570, as fraction. Here is the method: (§1) 1.1 Reagents 12 retinoic acid derivatives with the final concentrations of 1 ug/ml, 5 ug/ml and 10 ug/ml are synthesized by the Pharmaceutical College of Anhui Medical University using DMSO and anhydrous ethanol, separately packaged for storage at −20° C. and kept out of the light when used, and the final concentration of DMSO is less than 0.1%. MTT is purchased from Sigma Corp. The Coulter DNA detection kit is presented by the Central Lab of Anhui Provincial Hospital. AFP and γ-GT are provided by the Clinical Lab of No. 105 Hospital of PLA. Apoptosis-Hoechst staining kit is purchased from Beyotime Company.
(§2) 1.2 Cell Culture A549, and HpeG2 cells are stored by our lab. Cell growth condition: DMEM (from GIBICO Company) culture solution is added with 10% of calf serum (purchased from the Hangzhou Sijiqing Biological Engineering Material Co., Ltd.) to culture in a cell culture incubator (37° C., 5% CO2) with saturated humidity.
(§3) 1.3 Cell Growth and Proliferation Experiments MTT process is used. Cells in the logarithmic phase are picked and seeded on a 96-hole culture board with a cell concentration of 5×10^7/L. Each hole of the board is 200 ul. The next day after the adherence, the original solution is discarded, and the culture solution is added. The cells are divided into 1 ug/ml retinoic acid derivative groups, 5 ug/ml retinoic acid derivative groups, 10 ug/ml retinoic acid derivative groups, blank control groups, cell control groups, solvent control groups (1‰ DMSO and anhydrous ethanol) (17 in total) according to the concentrations thereof, incubated for 3d, added with MTT (5 g/L) of 20 ul/hole for incubation at 37° C. for 4 h. The original solution is carefully discarded and dried, and DMSO of 20 ul/hole is added to dissolve crystals, followed by vibrating for 10 min and determining the OD value at 570 nm. Each concentration is corresponding to 5 holes, and each group calculates the average of 3 experiments to calculate the inhibition rate to the cell growth according to the optical density (OD) average of each hole in each group and the following equation: inhibition rate %=(control hole OD570−experimental hole OD570)/control hole OD5700*100%. The process above is repeated for three times. The second experiment takes the maximum concentration (10 […]) for culture respectively for 1, 2, 3 and 7 days and repeat for three times.

The subject of another test is liver cancer HepG2 cells. The test is described as follows: MTT cell growth and proliferation experiment, HepG2. More on the design: key to Inhibition Rate: (control OD570 − test OD570)/control OD570, as fraction. Conditions: 3 d; for OD Value (x ± s): HepG2, MTT OD 570 nm; for Inhibition Rate: HepG2, MTT, fraction. The procedure: as §1, §2, §3
The test system of another test is K562 cells. Put plainly: Cell cycle analysis by flow cytometer, K562. As to conditions: 72 h. Details: S %: dose or concentration left out as unconfirmed. Here is the method:
(§4) Retinoic acid derivatives and fenretinide are prepared as a storage solution of 10 mg/mL by anhydrous ethanol and stored at […] and kept out of light.
(§5) NB4 cells and K562 cells are inoculated with an initial concentration of 2*10^5/ml in the RPMI1640 culture solution having 10% of calf serum (FBS), 100 u/ml of penicillin, 100 Lg/ml of streptomycin and 2 mmol/L of glutamine for suspension culture (37° C., 5% CO2). Change the solution every 2-3 days.
(§6) For the cells above acted by the retinoic acid derivatives and fenretinide ([…]) for 72 h, about 10^6 of them are collected, washed by PBS twice, fixed by 70% of cold ethanol over 24 h, washed by PBS twice, added with 5 ug/ml of propidium iodide for staining and detected by a flow cytometer from which the data are analyzed and processed by the multi-cycle software.
A general note: Flow cytometry measures light scatter and fluorescence of single cells or particles in a stream.

Another test concerns NB4 cells. Put plainly: Cell cycle analysis by flow cytometer, NB4. Details: S %: dose or concentration left out as unconfirmed. As to conditions: 72 h. Here is the method:
as §4, §5, §6

In the case of `CC1=C(/C=C/C(C)=C/C=C/C(C)=C/C(=O)Oc2ccc(C(F)(F)F)cc2)C(C)(C)CCC1` [Example 2a-01, (4-trifluoromethylphenyl)-(all-trans)-3,7-dimethyl-9-(2,6,6-trimethyl-1-cyclohexen-1-yl)-2,4,6,8-nonatetraenoate], the “OD Value (x ± s)” value in the test on A549 lung cancer cells (1 ug/ml, solvent ethanol) is recorded as 1.878 ± 0.158; with A549 lung cancer cells (5 ug/ml, solvent ethanol) it was 1.487 ± 0.175; in the test on A549 lung cancer cells (10 ug/ml, solvent ethanol), 1.458 ± 0.066; in the test with liver cancer HepG2 cells (1 ug/ml, solvent ethanol), 1.38 ± 0.56; with liver cancer HepG2 cells (5 ug/ml, solvent ethanol), 1.31 ± 0.57; in the test with liver cancer HepG2 cells (10 ug/ml, solvent ethanol) it was 1.30 ± 0.55. The “Inhibition Rate” value with A549 lung cancer cells (1 ug/ml, solvent ethanol) is on record as −0.006; with A549 lung cancer cells (5 ug/ml, solvent ethanol), 0.203; with A549 lung cancer cells (10 ug/ml, solvent ethanol), 0.219; with liver cancer HepG2 cells (1 ug/ml, solvent ethanol), 0.18; in the test with liver cancer HepG2 cells (5 ug/ml, solvent ethanol), 0.23; in the test with liver cancer HepG2 cells (10 ug/ml, solvent ethanol) it was 0.24. For the same compound, in the test on K562 cells, the G1 % stood at 36.1%. The compound also yielded a G2 % in the test with K562 cells of 12.5%. The compound also yielded a S % with K562 cells of 51.4%.
Consider `CC1=C(/C=C/C(C)=C/C=C/C(C)=C/C(=O)Oc2cccc(C(F)(F)F)c2)C(C)(C)CCC1` [Example 2a-02, (3-trifluoromethylphenyl)-(all-trans)-3,7-dimethyl-9-(2,6,6-trimethyl-1-cyclohexen-1-yl)-2,4,6,8-nonatetraenoate], for which the “OD Value (x ± s)” value came out at 1.735 ± 0.048 with A549 lung cancer cells (1 ug/ml, solvent DMSO (D)); 1.621 ± 0.070 with A549 lung cancer cells (5 ug/ml, solvent DMSO (D)); 1.580 ± 0.207 in the test with A549 lung cancer cells (10 ug/ml, solvent DMSO (D)); 1.19 ± 0.52 with liver cancer HepG2 cells (1 ug/ml, solvent ethanol); 1.13 ± 0.46 in the test with liver cancer HepG2 cells (5 ug/ml, solvent ethanol); 0.94 ± 0.49 in the test on liver cancer HepG2 cells (10 ug/ml, solvent ethanol). Further, the “Inhibition Rate” value in the test on A549 lung cancer cells (1 ug/ml, solvent DMSO (D)) was found to be 0.070; in the test with A549 lung cancer cells (5 ug/ml, solvent DMSO (D)), 0.131; in the test on A549 lung cancer cells (10 ug/ml, solvent DMSO (D)), 0.144; in the test on liver cancer HepG2 cells (1 ug/ml, solvent ethanol), 0.29; with liver cancer HepG2 cells (5 ug/ml, solvent ethanol), 0.33; with liver cancer HepG2 cells (10 ug/ml, solvent ethanol), 0.45. In the test on K562 cells, this compound had a G1 % of 35.4%. This compound also registered a G2 % with K562 cells of 9.9%. Also, the S % in the test on K562 cells came out at 54.6%.
`CC1=C(/C=C/C(C)=C/C=C/C(C)=C/C(=O)Oc2ccc(N)c(C(F)(F)F)c2)C(C)(C)CCC1` [Example 4a-01, (4-amino-3-trifluoromethylphenyl)-(all-trans)-3,7-dimethyl-9-(2,6,6-trimethyl-1-cyclohexen-1-yl)-2,4,6,8-nonatetraenoate]: in the test on liver cancer HepG2 cells (1 ug/ml, solvent not given), the “OD Value (x ± s)” value is given as 1.72 ± 0.44 and the “Inhibition Rate” value is listed as −0.009. For the same compound, in the test with liver cancer HepG2 cells (5 ug/ml, solvent not given), the “OD Value (x ± s)” value is on record as 1.63 ± 0.36 and the “Inhibition Rate” value is reported as 0.04. In addition, in the test on liver cancer HepG2 cells (10 ug/ml, solvent not given), the “OD Value (x ± s)” value is 1.57 ± 0.30 and the “Inhibition Rate” value was determined as 0.07. For the same compound, in the test with NB4 cells, the G1 % turned out to be 59.15%, the G2 % is recorded as 7.07% and the S % is recorded as 33.78%. In the test with K562 cells, this compound showed a G1 % of 39.1%, a G2 % of 6.9% and a S % of 53.9%.
In the case of `CC1=C(/C=C/C(C)=C/C=C/C(C)=C/C(=O)Oc2ccc(OC(F)(F)F)cc2)C(C)(C)CCC1` [Example 5a-01, (4-trifluoromethoxyphenyl)-(all-trans)-3,7-dimethyl-9-(2,6,6-trimethyl-1-cyclohexen-1-yl)-2,4,6,8-nonatetraenoate], the “OD Value (x ± s)” value with A549 lung cancer cells (1 ug/ml, solvent ethanol) stood at 1.962 ± 0.225; in the test on A549 lung cancer cells (5 ug/ml, solvent ethanol), 1.754 ± 0.138; in the test on A549 lung cancer cells (10 ug/ml, solvent ethanol), 1.732 ± 0.317; in the test on liver cancer HepG2 cells (1 ug/ml, solvent ethanol) it was 1.57 ± 0.39; in the test on liver cancer HepG2 cells (5 ug/ml, solvent ethanol), 1.51 ± 0.30; in the test on liver cancer HepG2 cells (10 ug/ml, solvent ethanol) it was 1.49 ± 0.23. Moreover, the “Inhibition Rate” value in the test with A549 lung cancer cells (1 ug/ml, solvent ethanol) was −0.051; in the test with A549 lung cancer cells (5 ug/ml, solvent ethanol), 0.060; with A549 lung cancer cells (10 ug/ml, solvent ethanol), 0.072; in the test on liver cancer HepG2 cells (1 ug/ml, solvent ethanol) it was 0.07; with liver cancer HepG2 cells (5 ug/ml, solvent ethanol) it was 0.11; with liver cancer HepG2 cells (10 ug/ml, solvent ethanol), 0.12. The results for the G1 % in the test on NB4 cells and in the test on K562 cells were 59.28% and 32.6%, respectively. Also, the G2 % stood at 4.98% in the test with NB4 cells and 12.5% with K562 cells. Also, the S % is recorded as 35.74% with NB4 cells and 55.0% with K562 cells.
With `CC1=C(/C=C/C(C)=C/C=C/C(C)=C/C(=O)Oc2cccc(OC(F)(F)F)c2)C(C)(C)CCC1` [Example 5a-02, (3-trifluoromethoxyphenyl)-(all-trans)-3,7-dimethyl-9-(2,6,6-trimethyl-1-cyclohexen-1-yl)-2,4,6,8-nonatetraenoate], the “OD Value (x ± s)” value is listed as 1.843 ± 0.179 in the test on A549 lung cancer cells (1 ug/ml, solvent DMSO (D)); 1.817 ± 0.142 in the test on A549 lung cancer cells (5 ug/ml, solvent DMSO (D)); 1.689 ± 0.154 in the test on A549 lung cancer cells (10 ug/ml, solvent DMSO (D)); 1.27 ± 0.44 in the test with liver cancer HepG2 cells (1 ug/ml, solvent ethanol); 1.13 ± 0.47 in the test on liver cancer HepG2 cells (5 ug/ml, solvent ethanol); 1.11 ± 0.61 in the test with liver cancer HepG2 cells (10 ug/ml, solvent ethanol). For the same compound, the “Inhibition Rate” value in the test with A549 lung cancer cells (1 ug/ml, solvent DMSO (D)) amounted to 0.012; with A549 lung cancer cells (5 ug/ml, solvent DMSO (D)) it was 0.027; with A549 lung cancer cells (10 ug/ml, solvent DMSO (D)) it was 0.095; with liver cancer HepG2 cells (1 ug/ml, solvent ethanol) it was 0.25; in the test on liver cancer HepG2 cells (5 ug/ml, solvent ethanol), 0.33; with liver cancer HepG2 cells (10 ug/ml, solvent ethanol) it was 0.35. In addition, the G1 % with NB4 cells worked out at 60.06%; in the test on K562 cells, 38.2%. In addition, the G2 % is given as 4.91% with NB4 cells and 7.7% in the test with K562 cells. Moreover, the S % is recorded as 35.03% with NB4 cells and 54.2% in the test on K562 cells.
